{"source": "patent US20220273664A1", "about": "“Mitochondrial Targeted Releasable Linker” (THE GOVERNING COUNCIL OF THE UNIVERSITY OF TORONTO, priority 2017, published 2022)", "key": {"[1]": {"test_system": "K562 cells", "test": "toxicity at different time points in K562 cells", "format": "cell-based", "details": "K562 leukemia cells, up to 48 hours", "description": "FIG. 7A is a graphical representation of the toxicity of compound 5 at different time points in K562 cells.\nFIG. 7B is a graphical representation of the toxicity of compound 6 at different time points in K562 cells.\nFIG. 10 is a graphical representation of the toxicity of luminespib (compound 7, as shown in FIG. 6C) at different time points in K562 cells."}, "[2]": {"test_system": "K562 cells", "test": "apoptosis measured via Annexin V staining", "format": "cell-based", "details": "2.5 μM, 24 hours", "protocol": "FIG. 8A is a chart illustrating apoptosis as measured via Annexin V staining of K562 cells treated for 24 hours with 2.5 μM of the compounds indicated. Cell populations were gated with annexin V+/Sytox red− cells as early apoptotic, and annexin V+/Sytox red+ cells as late apoptotic.\nAs controls, the parent compound luminespib (FIG. 8C, compound 7), and the empty disulfide vector (FIG. 6D) were also tested. The cells were treated with 2.5 μM of each compound."}}}
{"molecule": "CCNC(=O)c1noc(-c2cc(C(C)C)c(O)cc2O)c1-c1ccc(CN2CCOCC2)cc1", "note": "[luminespib, 5-(2,4-Dihydroxy-5-isopropylphenyl)-N-ethyl-4-(4-(morpholinomethyl)phenyl)isoxazole-3-carboxamide]", "values": [{"measurement": "cell toxicity over time", "setting": "[1]", "result": "growth inhibition"}, {"measurement": "apoptosis (early and late apoptotic cell populations)", "setting": "[2]", "result": "no increase"}]}
